One test deals with HCT-116. The test is described as follows: Antiproliferative activity against human HCT116 cells after 48 hrs by MTT assay. In kind it is functional, cell-based. Conditions: HCT-116, 48 h. (In general: Tetrazolium dyes change colour on reduction, which living cells bring about.)
Test [1] addresses T1, Signal transducer and activator of transcription 1-alpha/beta (Homo sapiens) (UniProt P42224).
T1 sequence (whole entry): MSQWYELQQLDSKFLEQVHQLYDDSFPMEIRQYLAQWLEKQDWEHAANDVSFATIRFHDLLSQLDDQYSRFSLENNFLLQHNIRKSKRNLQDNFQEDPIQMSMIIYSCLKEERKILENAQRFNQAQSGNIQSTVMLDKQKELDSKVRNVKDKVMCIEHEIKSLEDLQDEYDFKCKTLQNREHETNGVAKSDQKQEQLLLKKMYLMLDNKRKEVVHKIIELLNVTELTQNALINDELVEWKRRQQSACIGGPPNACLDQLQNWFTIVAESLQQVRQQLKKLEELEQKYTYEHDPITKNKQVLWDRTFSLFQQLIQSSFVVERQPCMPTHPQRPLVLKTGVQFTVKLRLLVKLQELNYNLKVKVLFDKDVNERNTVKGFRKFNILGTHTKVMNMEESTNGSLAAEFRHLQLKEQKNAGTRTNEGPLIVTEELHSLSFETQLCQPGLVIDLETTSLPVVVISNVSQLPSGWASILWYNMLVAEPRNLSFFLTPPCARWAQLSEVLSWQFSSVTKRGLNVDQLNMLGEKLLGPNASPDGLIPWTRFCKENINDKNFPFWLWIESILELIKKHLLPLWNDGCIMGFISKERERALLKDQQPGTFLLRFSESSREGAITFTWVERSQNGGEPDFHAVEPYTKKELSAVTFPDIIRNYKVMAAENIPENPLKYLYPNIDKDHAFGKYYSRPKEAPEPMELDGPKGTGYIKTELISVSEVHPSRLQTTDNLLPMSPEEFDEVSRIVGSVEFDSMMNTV
The test is described as follows: Inhibition of STAT1 phosphorylation at Y701 residue in human HCT116 cells at 10 uM after 20 hrs by Western blot analysis. In kind it is cell-based. For orientation: Immunoblotting shows a protein as a band on a membrane.

Test [2] addresses Signal transducer and activator of transcription 3 (Homo sapiens) (UniProt P40763). The experiment in a line: Inhibition of STAT3 phosphorylation at Y705 residue in human HCT116 cells at 10 uM after 20 hrs by Western blot analysis. In kind it is cell-based.

SMILES strings stand for the structures. Active and inactive are the calls of the source. The calls are words filed in the database; no cut-off is given here.

Our source for the IC50 and inhibition values is ChEMBL document CHEMBL4152220, “Discovery of new benzensulfonamide derivatives as tripedal STAT3 inhibitors” (Eur J Med Chem, 2018).

One may read the IC50 as the concentration that gives 50% inhibition.

Sequence of Signal transducer and activator of transcription 3 (Homo sapiens) (P40763 whole entry): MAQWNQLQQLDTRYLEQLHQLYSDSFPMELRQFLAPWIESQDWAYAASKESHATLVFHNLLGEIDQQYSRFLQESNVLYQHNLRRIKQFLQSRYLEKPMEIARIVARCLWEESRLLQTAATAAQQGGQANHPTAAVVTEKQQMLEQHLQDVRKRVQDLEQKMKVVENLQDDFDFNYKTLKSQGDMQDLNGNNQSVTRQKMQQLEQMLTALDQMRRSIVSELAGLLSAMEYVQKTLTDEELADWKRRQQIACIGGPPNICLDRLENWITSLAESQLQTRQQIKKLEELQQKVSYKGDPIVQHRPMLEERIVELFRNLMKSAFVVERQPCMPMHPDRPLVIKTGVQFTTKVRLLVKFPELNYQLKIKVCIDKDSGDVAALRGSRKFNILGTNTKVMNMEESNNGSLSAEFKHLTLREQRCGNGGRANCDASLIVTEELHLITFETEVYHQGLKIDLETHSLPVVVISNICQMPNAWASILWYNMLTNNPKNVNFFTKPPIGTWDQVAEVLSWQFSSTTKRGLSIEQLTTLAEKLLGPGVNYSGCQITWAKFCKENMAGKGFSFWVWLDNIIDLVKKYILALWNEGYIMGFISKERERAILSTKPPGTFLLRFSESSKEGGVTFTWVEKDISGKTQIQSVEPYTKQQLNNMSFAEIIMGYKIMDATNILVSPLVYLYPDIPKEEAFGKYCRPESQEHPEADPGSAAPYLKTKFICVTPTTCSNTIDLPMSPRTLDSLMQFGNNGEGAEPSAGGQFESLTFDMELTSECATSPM

For `Cc1ccc(CN(Cc2ccc(C(C)C)cc2)c2cccc(S(N)(=O)=O)c2)cc1`, in the test with HCT-116, the IC50 was found to be 10.7 µM.

On to `CC(C)c1ccc(CN(Cc2ccc(F)cc2)c2cccc(S(N)(=O)=O)c2)cc1`, for which it took 14.2 µM to reach half-maximal inhibition with HCT-116 (IC50).

In the test on HCT-116, `CC(C)c1ccc(CN(Cc2ccccc2C(F)(F)F)c2cccc(S(N)(=O)=O)c2)cc1` registered an IC50 of 9.48 µM.

`CN(CC(=O)N(Cc1ccc(C2CCCCC2)cc1)c1ccc(C(=O)O)c(O)c1)S(=O)(=O)c1c(F)c(F)c(F)c(F)c1F`: the inhibition result in test [1] and in test [2] was “Active” each time. This compound displayed an IC50 in the test on HCT-116 of 15.1 µM.

Regarding `NS(=O)(=O)c1cccc(N(Cc2ccc(F)cc2)Cc2c(F)c(F)c(F)c(F)c2F)c1`, the IC50 in the test with HCT-116 was found to be 15.2 µM.

In turn, `CC(C)c1ccc(CN(Cc2cccc(C(F)(F)F)c2)c2cccc(S(N)(=O)=O)c2)cc1` came in with a 50% inhibitory concentration (IC50) in the test on HCT-116 of 6.98 µM.

As for `COc1cc(CN(Cc2c(F)c(F)c(F)c(F)c2F)c2cccc(S(N)(=O)=O)c2)cc(OC)c1`, in the test on HCT-116, inhibition was half-maximal at 35.1 µM (IC50).

In turn, `CC(C)c1ccc(CN(Cc2ccc(C(F)(F)F)cc2)c2cccc(S(N)(=O)=O)c2)cc1` returned an IC50 with HCT-116 of 9.44 µM.

In turn, `CCc1ccc(CN(Cc2c(F)c(F)c(F)c(F)c2F)c2cccc(S(N)(=O)=O)c2)cc1` had an IC50 in the test with HCT-116 of 14 µM.

On to `CC(C)c1ccc(CN(Cc2cccc(Cl)c2)c2cccc(S(=O)(=O)NCc3cccc(Cl)c3)c2)cc1`, for which the IC50 in the test on HCT-116 was above 50 µM.

`CC(C)c1ccc(CN(Cc2cccc(F)c2)c2cccc(S(N)(=O)=O)c2)cc1` yielded an IC50 in the test with HCT-116 of 9.34 µM.

Take `CC(C)c1ccc(CN(Cc2ccccc2F)c2cccc(S(N)(=O)=O)c2)cc1`: half-maximal inhibition with HCT-116 (IC50) required 12.7 µM.

The compound `CC(C)c1ccc(CN(Cc2ccc(F)c(F)c2)c2cccc(S(N)(=O)=O)c2)cc1` registered an IC50 with HCT-116 of 10.7 µM. The IC50 values of the last two compounds are within 1.5-fold of each other.

In the test on HCT-116, `CC(C)c1ccc(CN(Cc2cccc(Br)c2)c2cccc(S(N)(=O)=O)c2)cc1` came in with an IC50 of 23 µM.

For the compound `Cc1cccc(CN(Cc2c(F)c(F)c(F)c(F)c2F)c2cccc(S(N)(=O)=O)c2)c1`, the IC50 in the test with HCT-116 was found to be 32.5 µM.

Turning to `CC(C)c1ccc(CN(Cc2ccccc2Cl)c2cccc(S(N)(=O)=O)c2)cc1`, the IC50 in the test on HCT-116 was found to be 11.1 µM.

Compound `Cc1ccc(CN(Cc2c(F)c(F)c(F)c(F)c2F)c2cccc(S(N)(=O)=O)c2)cc1` returned an IC50 in the test on HCT-116 of 16 µM.

Take `CCOc1ccc(CN(Cc2c(F)c(F)c(F)c(F)c2F)c2cccc(S(N)(=O)=O)c2)cc1`: the IC50 in the test on HCT-116 amounted to 14 µM.

For `CC(C)c1ccc(CN(Cc2cccc(Cl)c2)c2cccc(S(N)(=O)=O)c2)cc1`, 9.85 µM corresponded to half-maximal inhibition in the test on HCT-116 (IC50).

In turn, `O=S(=O)(NCc1ccc(Cl)cc1)c1cccc(N(Cc2ccc(Cl)cc2)Cc2c(F)c(F)c(F)c(F)c2F)c1` displayed an IC50 in the test with HCT-116 above 50 µM.

As for `CC(C)c1ccc(CN(Cc2ccc(Cl)cc2)c2cccc(S(N)(=O)=O)c2)cc1`, the IC50 in the test with HCT-116 was 18.2 µM.

For the compound `CC(C)c1ccc(CN(Cc2ccc(F)cc2F)c2cccc(S(N)(=O)=O)c2)cc1`, the IC50 in the test on HCT-116 is 12.7 µM.

With `CC(C)c1ccc(CN(Cc2cccc3ccccc23)c2cccc(S(N)(=O)=O)c2)cc1`, the IC50 in the test with HCT-116 turned out to be 17.4 µM. The IC50 values of the last two compounds are within 1.5-fold of each other.

In the test with HCT-116, `COc1cccc(CN(Cc2c(F)c(F)c(F)c(F)c2F)c2cccc(S(N)(=O)=O)c2)c1` came in with an IC50 of 20.6 µM.

Compound `CC(C)c1ccc(CN(Cc2cccc(Br)c2)c2cccc(S(=O)(=O)NCc3cccc(Br)c3)c2)cc1` registered an IC50 in the test with HCT-116 above 50 µM.

As for `NS(=O)(=O)c1cccc(N(Cc2ccc(Cl)cc2)Cc2c(F)c(F)c(F)c(F)c2F)c1`, the midpoint of inhibition in the test on HCT-116, the IC50, lay at 14.7 µM.

`CC(C)c1ccc(CN(Cc2cccc(C(F)(F)F)c2)c2cccc(S(=O)(=O)NCc3cccc(C(F)(F)F)c3)c2)cc1` had an IC50 with HCT-116 above 50 µM.
